One assay has as its target T1, glucocorticoid receptor (Homo sapiens, UniProt P04150).
T1 construct: endogenous in cells; host or cells: HepG2
T1 sequence (P04150 1-777): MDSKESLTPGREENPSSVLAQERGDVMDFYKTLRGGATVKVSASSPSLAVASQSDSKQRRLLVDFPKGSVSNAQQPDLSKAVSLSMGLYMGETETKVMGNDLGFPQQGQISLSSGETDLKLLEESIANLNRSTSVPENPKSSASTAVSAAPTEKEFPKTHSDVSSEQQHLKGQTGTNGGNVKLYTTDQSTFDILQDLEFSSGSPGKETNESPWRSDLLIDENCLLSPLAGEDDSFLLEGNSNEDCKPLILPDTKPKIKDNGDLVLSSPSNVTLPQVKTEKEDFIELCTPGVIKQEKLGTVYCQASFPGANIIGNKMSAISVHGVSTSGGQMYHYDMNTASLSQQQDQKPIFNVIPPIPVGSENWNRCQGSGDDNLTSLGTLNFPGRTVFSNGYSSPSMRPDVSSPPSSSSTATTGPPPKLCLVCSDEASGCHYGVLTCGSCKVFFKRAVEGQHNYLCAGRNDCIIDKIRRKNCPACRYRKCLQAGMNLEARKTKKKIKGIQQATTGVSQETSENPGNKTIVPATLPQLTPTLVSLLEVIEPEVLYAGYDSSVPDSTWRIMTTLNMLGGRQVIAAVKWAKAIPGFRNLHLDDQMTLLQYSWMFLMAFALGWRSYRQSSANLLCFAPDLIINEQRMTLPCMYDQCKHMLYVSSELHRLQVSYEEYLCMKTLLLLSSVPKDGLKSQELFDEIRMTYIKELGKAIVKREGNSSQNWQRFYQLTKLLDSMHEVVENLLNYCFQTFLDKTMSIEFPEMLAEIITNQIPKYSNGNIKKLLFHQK
The assay is described as follows: HepG2 Tyrosine Aminotransferase (TAT) Assay. Type of assay: cell-based. On the procedure: Glucocorticoid mediated activation of TAT occurs by transactivation of glucocorticoid response elements in the TAT promoter by glucocorticoid receptor-agonist complex.
HepG2 cells were cultured using MEME media supplemented with 10% (v/v) foetal bovine serum; 2 mM L-glutamine and 1% (v/v) NEAA at 37° C., 5%/95% (v/v) CO2/air.
Compounds were serially half log diluted in 100% (v/v) dimethylsulphoxide from a 10 mM stock.
HepG2 cells were then lysed with 30 μl of cell lysis buffer containing a protease inhibitor cocktail for 15 minutes at 4° C. […] After 2 hours incubation at 37° C. the reaction was terminated by the addition of 15 μl of 10 M aqueous potassium hydroxide solution, and the plates incubated for a further 30 minutes at 37° C.
[compound] and fitting the data to a 4 parameter logistic equation.

In the next assay the target is T2, human recombinant GR (Homo sapiens, UniProt P04150).
T2 construct: purchased PanVera P2812
T2 sequence (P04150 1-777): T1 sequence (P04150 1-777)
The assay is described as follows: Human Glucocorticoid Receptor (GR) Fluorescence Polarisation (FP) Binding Assay. The following applies: Ki from IC50 by ligand depletion correction; displacement of Fluorome GS Red. The protocol:
The following is a description of a FP assay for measuring compound inhibition of labelled glucocorticoid binding to the human recombinant GR.
The binding affinity of test compounds was determined using a FP binding assay using human recombinant GR (PanVera P2812) and a fluorescent labelled glucocorticoid ligand (Fluorome GS Red) (PanVera P2894). The presence of inhibitors prevents the formation of a GS Red/GR complex resulting in a decrease in the measured polarisation value. The change in polarisation value in the presence of test compounds is used to calculate the binding affinity of the compound for GR.
This assay was performed in 384 well, black, round-bottom, polypropylene micro titre plates in a final volume of 20 μl. The assay contained 5 μl 1 nM GR (final concentration), 5 μl 0.5 nM Fluorome GS Red (final concentration) in the presence of 10p test compounds. Positive control wells (high polarisation) receive, 10 μl 2% (v:v) DMSO vehicle (1% (v/v) final concentration)+5 μl 1 nM GR and 5 μl 0.5 nM Fluorome GS Red. […] Assay blank background wells (used for normalisation) receive 15 μl 1×GS screening buffer+5 μl GR.
For the IC50 determination (concentration of compound that displaces 50% of the bound GS Red), compounds were tested at eight different concentrations in duplicate in two independently performed experiments. Compounds were prepared as solubilised solids at 10 mM in DMSO. On the day of assay, an 8 point half-log serial dilution (55 μl DMSO+25 μl compound solution) was prepared. A 1:50 dilution (1 μl compound solution+49 μl 1×GR screening buffer) was prepared for each compound. The compounds were prepared at 2× final assay concentration.
The plates were mixed and incubated for 4 hour at room temperature. FP was measured using an Envision Excite plate reader with 535 nm excitation and 590 nm emission interference filters.
Milli-polarisation (mP) values were calculated using the below equation: mP=1000*(S−G*P)/(S+G*P) where S and P are assay blank background subtracted fluorescence units, G=G-factor (1.07).
Compound IC50 values were calculated by plotting a [compound] v. % inhibition curve and fitting the data to a 4-parameter logistic fit equation.
10×GR screening buffer (100 mM potassium phosphate pH 7.4, 200 mM Na2MoO4, 1 mM EDTA, 20% (v/v) DMSO). To prepare 1×GR screening buffer, combine 1 ml 10×GR screening buffer (PanVera P2814)+1 ml stabilising peptide (PanVera P2815)+7.95 ml 4° C. MQ water. Add 50p 1M DTT, vortex and place on ice until use.
In general terms: In fluorescence polarisation assays a small probe gives low polarisation when free and higher when bound to something large.

These results are taken from patent publication US12139486B2, “Octahydro fused azadecalin glucocorticoid receptor modulators” (Corcept Therapeutics, Inc., priority 2013, dated 2024).

The structures appear in SMILES notation.

In general, Ki refers to a dissociation constant, usually derived from enzyme kinetics or from competition with a known ligand. On to `O=C(c1ccccn1)[C@]12Cc3cnn(-c4ccc(F)cc4)c3C[C@@H]1CCN(S(=O)(=O)c1cccc(C(F)(F)F)c1)C2` [Example 2G, ((4aR,8aS)-1-(4-fluorophenyl)-6-((3-(trifluoromethyl)phenyl)sulfonyl)-4,4a,5,6,7,8,8a,9-octahydro-1H-pyrazolo[3,4-g]isoquinolin-4a-yl)(pyridin-2-yl)methanone], for which the Ki was 20 to 100 nM at glucocorticoid receptor and over 1 nM at human recombinant GR.

As for `O=C(c1cscn1)[C@]12Cc3cnn(-c4ccc(F)cc4)c3C[C@@H]1CCN(S(=O)(=O)c1cccc(C(F)(F)F)n1)C2` [Example 2AH, ((4aR,8aS)-1-(4-fluorophenyl)-6-((6-(trifluoromethyl)pyridin-2-yl)sulfonyl)-4,4a,5,6,7,8,8a,9-octahydro-1H-pyrazolo[3,4-g]isoquinolin-4a-yl)(thiazol-4-yl)methanone], the Ki was under 20 nM at glucocorticoid receptor and 0.5 to 1 nM at human recombinant GR.

Consider `O=C(c1cc(C(F)(F)F)ccn1)[C@]12Cc3cnn(-c4ccc(F)cc4)c3C[C@@H]1CCN(S(=O)(=O)c1cn[nH]n1)C2` [Example 2AE, ((4aR,8aS)-6-((2H-1,2,3-triazol-4-yl)sulfonyl)-1-(4-fluorophenyl)-4,4a,5,6,7,8,8a,9-octahydro-1H-pyrazolo[3,4-g]isoquinolin-4a-yl)(4-(trifluoromethyl)pyridin-2-yl)methanone], for which the figures for the Ki at glucocorticoid receptor and at human recombinant GR were over 100 nM and over 1 nM, respectively.

As for `N#Cc1cccc(S(=O)(=O)N2CC[C@H]3Cc4c(cnn4-c4ccc(F)cc4)C[C@]3(C(=O)c3ccccn3)C2)c1` [Example 2T, 3-(((4aR,8aS)-1-(4-fluorophenyl)-4a-picolinoyl-4a,5,7,8,8a,9-hexahydro-1H-pyrazolo[3,4-g]isoquinolin-6(4H)-yl)sulfonyl)benzonitrile], the figures for the Ki on glucocorticoid receptor and at human recombinant GR were 20 to 100 nM and over 1 nM, respectively.

On to `Cn1nccc1S(=O)(=O)N1CC[C@H]2Cc3c(cnn3-c3ccc(F)cc3)C[C@]2(C(=O)c2cc(C(F)(F)F)ccn2)C1` [Example 2J, ((4aR,8aS)-1-(4-fluorophenyl)-6-((1-methyl-1H-pyrazol-5-yl)sulfonyl)-4,4a,5,6,7,8,8a,9-octahydro-1H-pyrazolo[3,4-g]isoquinolin-4a-yl)(4-(trifluoromethyl)pyridin-2-yl)methanone], for which the Ki was 20 to 100 nM on glucocorticoid receptor and over 1 nM at human recombinant GR.

On to `CCn1nccc1S(=O)(=O)N1CC[C@H]2Cc3c(cnn3-c3ccc(F)cc3)C[C@]2(C(=O)c2cc(C(F)(F)F)ccn2)C1` [Example 2L, ((4aR,8aS)-6-((1-ethyl-1H-pyrazol-5-yl)sulfonyl)-1-(4-fluorophenyl)-4,4a,5,6,7,8,8a,9-octahydro-1H-pyrazolo[3,4-g]isoquinolin-4a-yl)(4-(trifluoromethyl)pyridin-2-yl)methanone], for which the Ki at glucocorticoid receptor is 20 to 100 nM; at human recombinant GR, over 1 nM.

For the compound `O=C(c1ccccn1)[C@]12Cc3cnn(-c4ccc(F)cc4)c3C[C@@H]1CCN(S(=O)(=O)c1ccc(F)c(F)c1)C2` [Example 1C, ((4aR,8aS)-6-((3,4-difluorophenyl)sulfonyl)-1-(4-fluorophenyl)-4,4a,5,6,7,8,8a,9-octahydro-1H-pyrazolo[3,4-g]isoquinolin-4a-yl)(pyridin-2-yl)methanone], the Ki at glucocorticoid receptor was 20 to 100 nM; on human recombinant GR it was over 1 nM.

As to `CC(C)n1ncc(S(=O)(=O)N2CC[C@H]3Cc4c(cnn4-c4ccc(F)cc4)C[C@]3(C(=O)c3nccs3)C2)n1` [Example 2Z, ((4aR,8aS)-1-(4-fluorophenyl)-6-((2-isopropyl-2H-1,2,3-triazol-4-yl)sulfonyl)-4,4a,5,6,7,8,8a,9-octahydro-1H-pyrazolo[3,4-g]isoquinolin-4a-yl)(thiazol-2-yl)methanone], the Ki at glucocorticoid receptor is 20 to 100 nM; on human recombinant GR it was under 0.5 nM.

Regarding `Cn1nncc1S(=O)(=O)N1CC[C@H]2Cc3c(cnn3-c3ccc(F)cc3)C[C@]2(C(=O)c2cc(C(F)(F)F)ccn2)C1` [Example 2X, ((4aR,8aS)-1-(4-fluorophenyl)-6-((1-methyl-1H-1,2,3-triazol-5-yl)sulfonyl)-4,4a,5,6,7,8,8a,9-octahydro-1H-pyrazolo[3,4-g]isoquinolin-4a-yl)(4-(trifluoromethyl)pyridin-2-yl)methanone], the Ki at glucocorticoid receptor is over 100 nM; on human recombinant GR, over 1 nM.

As for `O=C(c1ccccn1)[C@]12Cc3cnn(-c4ccc(F)cc4)c3C[C@@H]1CCN(S(=O)(=O)c1cccc(C(F)(F)F)n1)C2` [Example 2Q, ((4aR,8aS)-1-(4-fluorophenyl)-6-((6-(trifluoromethyl)pyridin-2-yl)sulfonyl)-4,4a,5,6,7,8,8a,9-octahydro-1H-pyrazolo[3,4-g]isoquinolin-4a-yl)(pyridin-2-yl)methanone], the Ki at glucocorticoid receptor was under 20 nM; on human recombinant GR, 0.5 to 1 nM.

On to `CC(C)n1cc(S(=O)(=O)N2CC[C@H]3Cc4c(cnn4-c4ccc(F)cc4)C[C@]3(C(=O)c3ccccn3)C2)cn1` [Example 2AA, ((4aR,8aS)-1-(4-fluorophenyl)-6-((1-isopropyl-1H-pyrazol-4-yl)sulfonyl)-4,4a,5,6,7,8,8a,9-octahydro-1H-pyrazolo[3,4-g]isoquinolin-4a-yl)(pyridin-2-yl)methanone], for which the figures for the Ki on glucocorticoid receptor and at human recombinant GR were 20 to 100 nM and under 0.5 nM, respectively.

As for `Cn1ncc(S(=O)(=O)N2CC[C@H]3Cc4c(cnn4-c4ccc(F)cc4)C[C@]3(C(=O)c3nccs3)C2)n1` [Example 2Y, ((4aR,8aS)-1-(4-fluorophenyl)-6-((2-methyl-2H-1,2,3-triazol-4-yl)sulfonyl)-4,4a,5,6,7,8,8a,9-octahydro-1H-pyrazolo[3,4-g]isoquinolin-4a-yl)(thiazol-2-yl)methanone], the Ki at glucocorticoid receptor is over 100 nM; on human recombinant GR, over 1 nM.

`CCCn1cc(S(=O)(=O)N2CC[C@H]3Cc4c(cnn4-c4ccc(F)cc4)C[C@]3(C(=O)c3cc(C(F)(F)F)ccn3)C2)cn1` [Example 2D, ((4aR,8aS)-1-(4-fluorophenyl)-6-((1-propyl-1H-pyrazol-4-yl)sulfonyl)-4,4a,5,6,7,8,8a,9-octahydro-1H-pyrazolo[3,4-g]isoquinolin-4a-yl)(4-(trifluoromethyl)pyridin-2-yl)methanone]: the Ki at glucocorticoid receptor was under 20 nM; on human recombinant GR, under 0.5 nM.

For the compound `CCn1ncc(S(=O)(=O)N2CC[C@H]3Cc4c(cnn4-c4ccc(F)cc4)C[C@]3(C(=O)c3cscn3)C2)n1` [Example 2AK, ((4aR,8aS)-6-((2-ethyl-2H-1,2,3-triazol-4-yl)sulfonyl)-1-(4-fluorophenyl)-4,4a,5,6,7,8,8a,9-octahydro-1H-pyrazolo[3,4-g]isoquinolin-4a-yl)(thiazol-4-yl)methanone], the Ki at glucocorticoid receptor is under 20 nM.
